According to US12268702B2, “Antitumor pharmaceutical composition comprising azvudine and chemotherapeutic agent” (HENAN GENUINE BIOTECH CO., LTD., priority 2023, dated 2025):

Legend:
Type in all cases: in vivo
[1] = test system: Colo 205 human colon cancer model; assay: Colo 205 human colon cancer subcutaneous xenograft tumor model
Method: Experimental animals were 68 (48 plus 20 spare mice) BALB/c female nude mice, 7-8 weeks old (the age of mice at the time of tumor cell inoculation) and weighing 15.7-20.7 g, which were purchased from Beijing VitalRiver Experimental Animal Technology Co., Ltd. Breeding environment was SPF grade. The experimental animals were all kept in an independent ventilated box with constant temperature and humidity. The temperature of the breeding room was 20-26° C., the humidity was 40-70%. The breeding room was ventilated 10-20 times per hour. The alternating time of day and night was 12 h/12 h. The mice were continuously supplied with cobalt 60 radiation sterilized mouse complete pellet feed, and had free access to the feed. The mice drank tap water (available after sterilization with high-pressure steam), which was continuously supplied using a water-drinking bottle, and had free access to water. The mouse box was a polysulfone mouse box, which was used after sterilization under high pressure, with a size of 325 mm×210 mm×180 mm.
Colo 205 cells were cultured in RPMI1640 medium containing 10% fetal bovine serum. Colo 205 cells in the exponential growth phase were collected, resuspended in PBS to an appropriate concentration and mixed with Matrigel at a ratio of 1:1. The resulting mixture was used for subcutaneous inoculation of tumor in mice. 5×10^6 Colo 205 cells were subcutaneously inoculated on the right side of female mice. The day of inoculation was defined as Day 0. When the average tumor volume reached 110.26 mm^3, the mice were randomly divided into groups according to tumor size.
Relative tumor proliferation rate, T/C %, refers to the percentage value of the relative tumor volume or tumor weight of the treatment group and the control group at a certain time point, which was calculated as follows:
T/C %=TRTV/CRTV×100% (TRTV: the average RTV of the treatment group; CRTV: the average RTV of the vehicle control group; RTV=Vt/V0, where V0 is the tumor volume of the animal when grouped, and Vt is the tumor volume of the animal after treatment); • or T/C %=TTW/CTW×100% (TTW: the average tumor weight of the treatment group at the end of the experiment; CTW: the average tumor weight of the vehicle control group at the end of the experiment). • Relative tumor inhibition rate, TGI (%), was calculated according to the formula as follows: TGI %=(1−T/C)×100%. (T and C are the relative tumor volumes (RTV) or tumor weights (TW) of the treatment group and the control group at a specific time point).

[2] = test system: Daudi xenograft tumor model; assay: Human Burkitt's lymphoma cell Daudi subcutaneous xenograft tumor model; settings: combination 1 + 50 mg/kg; for Tumor volume (mm^3) on the 27th day: CB 17 SCID mice, QD x 4 weeks, azvudine 1 mg/kg p.o., cyclophosphamide 50 mg/kg i.p.
Method: (§1) Human Burkitt's lymphoma cells Daudi (Cat. No.: DSMZ-ACC129) were in vitro suspended and cultured in RPMI 1640 medium containing 10% fetal bovine serum, 2 mM glutamine, 100 U/mL penicillin and 100 μg/mL streptomycin, in a 37° C. and 5% CO2 incubator. When the cell saturation achieved 80%-90% and the cell number reached the requirement, the cells were collected, counted and inoculated.
0.2 mL (10×10^6) of Daudi cells (added with Matrigel at a volume ratio of 1:1) were subcutaneously inoculated on the right back of each mouse. The grouping administration was started when the average tumor volume reached about 100 mm^3.
The changes of tumor volume and tumor weight in each group after administration of test drugs for treating CB 17 SCID mice with Daudi cell subcutaneous xenograft tumor are shown in Table 8 and Table 9 respectively.

[3] = test system: MOLT4 xenograft tumor model; assay: Human acute lymphoblastic leukemia MOLT4 cell subcutaneous xenograft tumor model
Method: as §1, with “acute lymphoblastic leukemia” for “Burkitt's lymphoma”, “MOLT4” for “Daudi”, “ECACC-85011413)” for “DSMZ-ACC129)”, “serum,” for “serum, 2 mM glutamine,”
0.2 mL (10×10^6) of MOLT4 cells (added with Matrigel at a volume ratio of 1:1) were subcutaneously inoculated on the right back of each mouse. The grouping administration was started when the average tumor volume reached about 148 mm^3.
The changes of tumor volume and tumor weight in each group after administration of test drugs for treating SCID Beige mice with MOLT4 cell subcutaneous xenograft tumor are shown in Table 10 and Table 11.

[4] = test system: A2058 xenograft tumor model; assay: Human melanoma A2058 cell subcutaneous xenograft tumor model; settings: azvudine 1 mg/kg, dacarbazine 60 mg/kg, combination 1 + 60 mg/kg
Method: Human melanoma cells A2058 (Cat. No.: CRL-11147) were cultured in vitro as a monolayer in DMEM medium containing 10% fetal bovine serum, 100 U/mL penicillin and 100 μg/mL streptomycin, in a 37° C. and 5% CO2 incubator. The cells were routinely digested with trypsin-EDTA and passaged twice a week. When the cell saturation reached 80%-90% and the cell number achieved the requirement, the cells were collected, counted and inoculated.
0.2 mL (5×10^6) of A2058 cells were added with Matrigel, and the mixture was subcutaneously inoculated on the right back of each mouse. The grouping administration was started when the average tumor volume reached about 136 mm^3.

[5] = based on tumor volume, 25th day after inoculation, p.o. QD x 3 weeks, azvudine 1 mpk, capecitabine 400 mpk, combination 1 + 400 mpk
[6] = based on tumor weight, azvudine 1 mpk, capecitabine 400 mpk, combination 1 + 400 mpk
[7] = based on tumor volume, 27th day, azvudine 1 mg/kg, cyclophosphamide 50 mg/kg
[8] = 28th day after start of administration, azvudine 1 mg/kg
[9] = based on tumor volume, 28th day, azvudine 2 mg/kg in Table 10, cyclophosphamide 50 mg/kg, combination 1 + 50 mg/kg
[10] = based on tumor volume, 14th day

[N-]=[N+]=N[C@]1(CO)O[C@@H](n2ccc(N)nc2=O)[C@@H](F)[C@@H]1O [Azvudine, azvudine]
Tumor volume ([1]; 25th day after inoculation (20th day after grouping), BALB/c nude mice, p.o. QD x 3 weeks, azvudine 1 mpk, capecitabine 400 mpk, combination 1 + 400 mpk): 985.14 ± 108.58(6) | average tumor volume ([1]; 25th day after tumor inoculation (20th day after grouping), azvudine 1 mg/kg, capecitabine 400 mg/kg, combination 1 + 400 mg/kg): 985.14 mm^3 | T/C (%) [1, 5]: 67.57% | TGI (%) [1, 5]: 32.43% | T/C (%) [1, 6]: 28.19% | TGI [1, 6]: 71.81 | Tumor weight (mg) ([1]; end of experiment, p.o. QD x 3 weeks, azvudine 1 mpk, capecitabine 400 mpk, combination 1 + 400 mpk): 986.10 ± 107.78(6) mg | Tumor volume (mm^3) on the 27th day ([2]; 27th day of administration): 909 ± 120 mm^3 | Tumor volume (mm^3) on the 27th day ([2]; 27th day of administration, listed as azvudine): 909 mm^3 | Tumor weight (g) (On the 27th day) ([2]; 27th day of administration, azvudine 1 mg/kg, cyclophosphamide 50 mg/kg): 0.996 ± 0.143 g | T/C (%) [2, 7]: 30.64% | TGI (%) [2, 7]: 71.09% | T/Cweight (%) ([2]; based on tumor weight, 27th day, azvudine 1 mg/kg, cyclophosphamide 50 mg/kg): 33.38% | T/C [3, 8]: 33.89 | TGI [3, 8]: 69.73% | Tumor volume [3, 8]: 979 mm^3 | Tumor volume (mm^3) on the 28th day ([3]; 28th day of administration, SCID Beige mice, QD x 4 weeks, azvudine 2 mg/kg in Table 10, cyclophosphamide 50 mg/kg i.p., combination 1 + 50 mg/kg): 986 ± 179 mm^3 | Tumor weight (g) (On the 28th day) ([3]; 28th day of administration, azvudine 1 mg/kg, cyclophosphamide 50 mg/kg, combination 1 + 50 mg/kg): 1.168 ± 0.145 g | T/C (%) [3, 9]: 33.55% | TGI (%) [3, 9]: 69.49% | T/Cweight (%) ([3]; based on tumor weight, 28th day, azvudine 1 mg/kg, cyclophosphamide 50 mg/kg, combination 1 + 50 mg/kg): 39.31% | Tumor volume (mm^3) on the 14th day ([4]; 14th day of administration, listed as azvudine): 2253 mm^3 | T/C (%) [4, 10]: 79.67% | TGI (%) [4, 10]: 18.22%
